PMC8213057, “Targeting ALK2: An Open Science Approach to Developing Therapeutics for the Treatment of Diffuse Intrinsic Pontine Glioma” (Journal of Medicinal Chemistry, 2020)
Several values for one entry are separate records, joined by “and”; a condition that tells them apart may be missing. Equal entries are not always repeated.

Columns and labels:
DLK/MAP3K12 = target: T1, DLK/MAP3K12 (Homo sapiens, UniProt Q12852); test: biochemical; conditions: read-out: % enzyme activity, 1 μM; Run 1, Run 2
T1 sequence (Q12852 1-859): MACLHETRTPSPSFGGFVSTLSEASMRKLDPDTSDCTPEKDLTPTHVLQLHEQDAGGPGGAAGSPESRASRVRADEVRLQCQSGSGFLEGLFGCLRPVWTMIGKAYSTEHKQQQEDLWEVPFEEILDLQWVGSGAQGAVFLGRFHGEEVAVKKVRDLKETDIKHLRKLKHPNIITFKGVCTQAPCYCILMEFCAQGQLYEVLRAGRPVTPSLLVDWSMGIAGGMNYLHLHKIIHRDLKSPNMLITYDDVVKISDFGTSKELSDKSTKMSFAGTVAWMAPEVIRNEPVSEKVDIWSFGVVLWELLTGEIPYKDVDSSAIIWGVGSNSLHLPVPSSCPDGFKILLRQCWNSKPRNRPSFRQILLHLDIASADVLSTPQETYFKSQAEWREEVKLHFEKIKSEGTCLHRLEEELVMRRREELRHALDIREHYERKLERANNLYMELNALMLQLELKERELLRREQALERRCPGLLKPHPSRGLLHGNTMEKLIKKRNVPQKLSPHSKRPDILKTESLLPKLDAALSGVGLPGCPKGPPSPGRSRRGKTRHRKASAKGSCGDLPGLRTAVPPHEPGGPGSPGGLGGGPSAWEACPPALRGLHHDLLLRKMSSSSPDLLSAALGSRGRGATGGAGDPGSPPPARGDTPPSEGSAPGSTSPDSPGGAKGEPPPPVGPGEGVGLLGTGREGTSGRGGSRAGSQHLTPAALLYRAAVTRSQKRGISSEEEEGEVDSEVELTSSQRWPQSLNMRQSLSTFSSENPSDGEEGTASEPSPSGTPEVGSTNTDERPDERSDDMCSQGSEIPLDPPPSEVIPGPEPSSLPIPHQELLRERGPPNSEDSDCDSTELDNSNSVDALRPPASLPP

MKK6 = target: T2, MKK6 (Homo sapiens, UniProt P52564); conditions: 1 μM; Run 1, Run 2
T2 sequence (P52564 1-334): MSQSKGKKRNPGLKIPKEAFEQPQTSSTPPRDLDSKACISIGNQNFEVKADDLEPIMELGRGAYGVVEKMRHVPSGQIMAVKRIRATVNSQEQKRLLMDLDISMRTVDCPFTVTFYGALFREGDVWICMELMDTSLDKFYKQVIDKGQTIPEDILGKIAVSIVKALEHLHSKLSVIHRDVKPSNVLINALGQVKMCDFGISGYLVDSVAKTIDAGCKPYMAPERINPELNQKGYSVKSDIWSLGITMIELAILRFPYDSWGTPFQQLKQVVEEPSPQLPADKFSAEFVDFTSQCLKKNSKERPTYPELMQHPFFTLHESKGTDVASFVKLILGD

MEKK6 = target: T3, MEKK6 (Homo sapiens, UniProt O95382); conditions: 1 μM; Run 1, Run 2
T3 sequence (O95382 1-1288): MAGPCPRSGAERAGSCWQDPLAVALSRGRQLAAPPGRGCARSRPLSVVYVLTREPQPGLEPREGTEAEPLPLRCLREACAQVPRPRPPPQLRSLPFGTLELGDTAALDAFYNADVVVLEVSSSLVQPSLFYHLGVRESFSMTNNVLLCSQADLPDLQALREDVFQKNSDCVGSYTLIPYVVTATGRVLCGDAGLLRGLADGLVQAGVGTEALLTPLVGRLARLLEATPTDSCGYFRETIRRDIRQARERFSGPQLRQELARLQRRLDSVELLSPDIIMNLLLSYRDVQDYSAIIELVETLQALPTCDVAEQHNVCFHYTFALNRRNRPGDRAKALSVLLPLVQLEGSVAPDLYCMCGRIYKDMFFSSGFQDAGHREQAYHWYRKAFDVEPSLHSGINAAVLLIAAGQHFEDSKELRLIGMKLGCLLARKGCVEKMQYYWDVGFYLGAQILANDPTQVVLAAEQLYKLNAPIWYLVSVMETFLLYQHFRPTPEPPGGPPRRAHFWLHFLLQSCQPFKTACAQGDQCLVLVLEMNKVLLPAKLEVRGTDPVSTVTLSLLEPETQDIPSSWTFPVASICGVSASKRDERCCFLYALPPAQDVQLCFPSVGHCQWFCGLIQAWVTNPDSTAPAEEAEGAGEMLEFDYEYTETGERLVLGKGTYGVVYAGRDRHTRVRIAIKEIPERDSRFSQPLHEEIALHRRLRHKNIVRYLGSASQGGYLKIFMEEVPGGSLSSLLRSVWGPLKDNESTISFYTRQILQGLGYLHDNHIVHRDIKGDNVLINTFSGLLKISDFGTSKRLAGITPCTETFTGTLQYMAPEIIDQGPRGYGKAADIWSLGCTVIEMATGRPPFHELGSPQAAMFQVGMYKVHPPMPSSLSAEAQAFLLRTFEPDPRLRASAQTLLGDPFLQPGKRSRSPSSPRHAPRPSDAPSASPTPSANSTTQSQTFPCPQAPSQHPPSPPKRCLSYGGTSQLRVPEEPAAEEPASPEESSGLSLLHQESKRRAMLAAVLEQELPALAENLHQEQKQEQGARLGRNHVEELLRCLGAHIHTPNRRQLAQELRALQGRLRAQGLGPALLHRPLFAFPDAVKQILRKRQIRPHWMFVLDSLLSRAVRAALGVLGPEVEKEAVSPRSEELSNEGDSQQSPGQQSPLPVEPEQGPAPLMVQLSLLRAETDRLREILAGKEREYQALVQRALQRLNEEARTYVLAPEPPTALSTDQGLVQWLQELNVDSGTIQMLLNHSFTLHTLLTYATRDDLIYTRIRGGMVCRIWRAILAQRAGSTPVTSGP

CLK3 = CLK3 (Homo sapiens, UniProt P49761); test: biochemical; conditions: read-out: % enzyme activity, 1 μM; Run 1, Run 2
CLK3, sequence (P49761 whole entry): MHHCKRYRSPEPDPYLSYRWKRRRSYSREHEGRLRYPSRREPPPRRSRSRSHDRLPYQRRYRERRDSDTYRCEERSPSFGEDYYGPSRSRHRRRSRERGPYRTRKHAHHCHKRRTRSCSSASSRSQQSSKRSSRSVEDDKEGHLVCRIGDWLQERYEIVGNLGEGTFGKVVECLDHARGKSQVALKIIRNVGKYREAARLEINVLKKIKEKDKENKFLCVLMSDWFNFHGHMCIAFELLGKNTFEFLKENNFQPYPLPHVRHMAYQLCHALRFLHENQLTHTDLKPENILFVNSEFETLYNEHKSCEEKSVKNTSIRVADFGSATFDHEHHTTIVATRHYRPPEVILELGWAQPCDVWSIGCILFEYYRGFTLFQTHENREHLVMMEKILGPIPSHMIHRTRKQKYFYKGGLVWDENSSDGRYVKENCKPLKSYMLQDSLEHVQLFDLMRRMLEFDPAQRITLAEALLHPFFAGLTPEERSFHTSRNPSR

MARK1 = MARK1 (Homo sapiens, UniProt Q9P0L2); test: biochemical; conditions: read-out: % enzyme activity, 1 μM; Run 1, Run 2
MARK1, sequence (Q9P0L2 whole entry): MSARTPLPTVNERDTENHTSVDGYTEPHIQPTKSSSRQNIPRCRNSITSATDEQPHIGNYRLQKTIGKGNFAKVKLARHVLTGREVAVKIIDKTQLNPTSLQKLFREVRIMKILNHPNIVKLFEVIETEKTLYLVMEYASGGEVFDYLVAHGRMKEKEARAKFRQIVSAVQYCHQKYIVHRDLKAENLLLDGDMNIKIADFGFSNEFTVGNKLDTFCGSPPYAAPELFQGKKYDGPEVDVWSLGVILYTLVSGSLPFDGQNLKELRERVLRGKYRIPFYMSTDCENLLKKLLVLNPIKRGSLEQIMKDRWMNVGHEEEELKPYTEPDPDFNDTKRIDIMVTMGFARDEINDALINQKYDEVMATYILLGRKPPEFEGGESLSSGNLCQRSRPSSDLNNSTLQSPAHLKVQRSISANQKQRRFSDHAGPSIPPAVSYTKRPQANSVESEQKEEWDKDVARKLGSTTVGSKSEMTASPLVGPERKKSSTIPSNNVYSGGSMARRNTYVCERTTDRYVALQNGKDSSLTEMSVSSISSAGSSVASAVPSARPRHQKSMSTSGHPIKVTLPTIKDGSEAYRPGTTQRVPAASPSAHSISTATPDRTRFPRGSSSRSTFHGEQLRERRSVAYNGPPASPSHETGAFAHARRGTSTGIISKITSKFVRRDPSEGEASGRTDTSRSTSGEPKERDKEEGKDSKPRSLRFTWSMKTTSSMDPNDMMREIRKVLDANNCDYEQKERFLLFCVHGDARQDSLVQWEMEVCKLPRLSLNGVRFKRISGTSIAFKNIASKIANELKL

CYP2C19 = CYP2C19 (Homo sapiens, UniProt P33261); conditions: read-out: CYP2C19 IC50; human liver microsomes
CYP2C19, sequence (P33261 whole entry): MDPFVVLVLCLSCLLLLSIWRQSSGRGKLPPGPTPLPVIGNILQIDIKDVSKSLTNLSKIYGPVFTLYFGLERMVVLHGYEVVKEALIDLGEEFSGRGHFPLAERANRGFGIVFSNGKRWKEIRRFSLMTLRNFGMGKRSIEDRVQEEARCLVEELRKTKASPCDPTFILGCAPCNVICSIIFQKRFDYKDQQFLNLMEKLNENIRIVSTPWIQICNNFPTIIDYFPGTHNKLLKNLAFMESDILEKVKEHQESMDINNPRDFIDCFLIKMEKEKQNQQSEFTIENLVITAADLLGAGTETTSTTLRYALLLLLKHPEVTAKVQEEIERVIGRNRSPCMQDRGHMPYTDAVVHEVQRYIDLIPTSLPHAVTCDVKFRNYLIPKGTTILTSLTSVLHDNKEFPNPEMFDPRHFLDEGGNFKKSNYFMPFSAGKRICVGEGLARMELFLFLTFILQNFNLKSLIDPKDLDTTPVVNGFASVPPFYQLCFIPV

PKCd = PKCd (Homo sapiens, UniProt Q05655); conditions: 1 μM; Run 1, Run 2
PKCd, sequence (Q05655 whole entry): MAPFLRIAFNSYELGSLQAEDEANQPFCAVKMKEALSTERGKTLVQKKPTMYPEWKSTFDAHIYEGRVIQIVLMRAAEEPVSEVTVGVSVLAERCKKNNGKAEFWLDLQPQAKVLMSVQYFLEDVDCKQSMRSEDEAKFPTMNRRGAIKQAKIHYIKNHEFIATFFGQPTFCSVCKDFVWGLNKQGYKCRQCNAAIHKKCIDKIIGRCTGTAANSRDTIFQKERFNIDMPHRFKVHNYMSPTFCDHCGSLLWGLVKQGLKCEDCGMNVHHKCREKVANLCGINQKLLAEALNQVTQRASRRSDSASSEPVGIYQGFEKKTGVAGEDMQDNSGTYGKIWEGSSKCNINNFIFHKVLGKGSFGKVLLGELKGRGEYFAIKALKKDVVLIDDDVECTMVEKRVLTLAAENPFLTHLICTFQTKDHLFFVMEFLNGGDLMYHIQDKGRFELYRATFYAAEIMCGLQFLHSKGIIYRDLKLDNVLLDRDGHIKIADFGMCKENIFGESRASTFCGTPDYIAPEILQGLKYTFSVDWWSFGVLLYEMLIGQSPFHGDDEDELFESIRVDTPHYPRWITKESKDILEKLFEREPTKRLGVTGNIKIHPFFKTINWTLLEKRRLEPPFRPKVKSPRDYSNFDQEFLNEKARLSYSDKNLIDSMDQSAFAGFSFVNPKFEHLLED

ALK3/BMPR1A = target: T4, ALK3/BMPR1A (Homo sapiens, UniProt P36894); test: 375-member kinase panel; format: biochemical; conditions: Run 1, Run 2; for % enzyme activity: 1 μM; for remaining activity at 1 µM: read-out: % enzyme activity, 1 μM
T4 construct: purchased Reaction Biology Corporation
T4 sequence (P36894 24-532): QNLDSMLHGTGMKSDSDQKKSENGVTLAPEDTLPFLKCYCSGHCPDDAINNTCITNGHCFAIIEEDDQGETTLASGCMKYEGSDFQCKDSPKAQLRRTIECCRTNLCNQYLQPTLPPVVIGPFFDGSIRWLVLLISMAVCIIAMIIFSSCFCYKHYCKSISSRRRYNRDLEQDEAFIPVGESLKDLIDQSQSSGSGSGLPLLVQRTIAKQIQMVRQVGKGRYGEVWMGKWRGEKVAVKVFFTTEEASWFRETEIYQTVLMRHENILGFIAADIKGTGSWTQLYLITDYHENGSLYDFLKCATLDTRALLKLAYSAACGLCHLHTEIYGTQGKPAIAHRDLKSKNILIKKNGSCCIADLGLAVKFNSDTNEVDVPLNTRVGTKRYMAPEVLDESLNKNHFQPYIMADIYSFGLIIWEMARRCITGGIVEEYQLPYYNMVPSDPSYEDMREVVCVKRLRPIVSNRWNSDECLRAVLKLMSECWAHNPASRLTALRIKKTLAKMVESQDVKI

Compound	% enzyme activity at 1 μM (KHS/MAP4K5)	remaining activity at 1 µM (DLK/MAP3K12) [%]	% enzyme activity at 1 μM (TAOK1)	% enzyme activity (MKK6) [%]	% enzyme activity (MEKK6) [%]	remaining activity at 1 µM (CLK3) [%]	remaining activity at 1 µM (MARK1) [%]	IC50 (CYP2C19) [µM]	% enzyme activity (PKCd) [%]	% enzyme activity (ALK3/BMPR1A) [%]	remaining activity at 1 µM (ALK3/BMPR1A) [%]
COc1cc(-c2cncc(-c3ccc(N4C[C@@H](C)N(C)[C@@H](C)C4)cc3)c2C)cc(F)c1C(N)=O [Compound 26c, 2-Fluoro-6-methoxy-4-(4-methyl-5-(4-((3R,5S)-3,4,5-trimethylpiperazin-1-yl)phenyl)pyridin-3-yl)benzamide]	41.7% and 40.6%	99.2	62.2% and 60.6%	79.33	95.16	88.3	94.1	> 50	100.12	50.46	50
COc1cc(-c2cncc(-c3ccc(N4CCN(C)CC4)cc3)c2C)cc(F)c1C(N)=O [Compound 26a, 2-Fluoro-6-methoxy-4-(4-methyl-5-(4-(4-methylpiperazin-1-yl)phenyl)pyridin-3-yl)benzamide]	39.7% and 39.3%	93.7	60.3% and 60.2%	80.71	96.75	103	88	> 50	97.72	40.21	38.4
